Data: ChEMBL document CHEMBL5678818, “Discovery of potent SOS1 inhibitors that block RAS activation via disruption of the RAS-SOS1 interaction” (Proc Natl Acad Sci U S A, 2019)

Key:
[1] = biological target: Ribosomal protein S6 kinase alpha-5 (Homo sapiens) (UniProt O75582); assay: Inhibition of C-terminal RPS6KA5 kinetic domain 2 (unknown origin) assessed as residual activity at 1000 nM by KINOMEscan analysis relative to control
[2] = system: Phosphatidylinositol 4,5-bisphosphate 3-kinase catalytic subunit alpha isoform (Homo sapiens), P42336 [E545A]; assay: Inhibition of PIK3CA E545A mutant (unknown origin) assessed as residual activity at 1000 nM by KINOMEscan analysis relative to control
[3] = biological target: Ribosomal protein S6 kinase alpha-4 (Homo sapiens) (UniProt O75676); assay: Inhibition of N-terminal RPS6KA4 […] domain 1 (unknown origin) assessed as residual activity at 1000 nM by KINOMEscan analysis relative to control
[4] = biological target: Calcium/calmodulin-dependent protein kinase type 1 (Homo sapiens) (UniProt Q14012); assay: Inhibition of CAMK1 (unknown origin) assessed as residual activity at 1000 nM by KINOMEscan analysis relative to control
[5] = system: Phosphatidylinositol 4,5-bisphosphate 3-kinase catalytic subunit alpha isoform (Homo sapiens), P42336 [C420R]; assay: Inhibition of PIK3CA C420R mutant (unknown origin) assessed as residual activity at 1000 nM by KINOMEscan analysis relative to control
[6] = biological target: Myosin-IIIa (Homo sapiens) (UniProt Q8NEV4); assay: Inhibition of MYO3A (unknown origin) assessed as residual activity at 1000 nM by KINOMEscan analysis relative to control
[7] = biological target: Serine/threonine-protein kinase NIM1 (Homo sapiens) (UniProt Q8IY84); assay: Inhibition of NIM1 (unknown origin) assessed as residual activity at 1000 nM by KINOMEscan analysis relative to control
[8] = biological target: Dual specificity tyrosine-phosphorylation-regulated kinase 1B (Homo sapiens) (UniProt Q9Y463); assay: Inhibition of DYRK1B (unknown origin) assessed as residual activity at 1000 nM by KINOMEscan analysis relative to control
[9] = system: Tyrosine-protein kinase ABL1 (Homo sapiens), P00519 [H396P]; assay: Inhibition of nonphosphorylated ABL1 H396P mutant (unknown origin) assessed as residual activity at 1000 nM by KINOMEscan analysis relative to control
[10] = biological target: T1, Serine/threonine-protein kinase BRSK1 (Homo sapiens) (UniProt Q8TDC3); assay: Inhibition of BRSK1 (unknown origin) assessed as residual activity at 1000 nM by KINOMEscan analysis relative to control
T1 sequence (whole entry): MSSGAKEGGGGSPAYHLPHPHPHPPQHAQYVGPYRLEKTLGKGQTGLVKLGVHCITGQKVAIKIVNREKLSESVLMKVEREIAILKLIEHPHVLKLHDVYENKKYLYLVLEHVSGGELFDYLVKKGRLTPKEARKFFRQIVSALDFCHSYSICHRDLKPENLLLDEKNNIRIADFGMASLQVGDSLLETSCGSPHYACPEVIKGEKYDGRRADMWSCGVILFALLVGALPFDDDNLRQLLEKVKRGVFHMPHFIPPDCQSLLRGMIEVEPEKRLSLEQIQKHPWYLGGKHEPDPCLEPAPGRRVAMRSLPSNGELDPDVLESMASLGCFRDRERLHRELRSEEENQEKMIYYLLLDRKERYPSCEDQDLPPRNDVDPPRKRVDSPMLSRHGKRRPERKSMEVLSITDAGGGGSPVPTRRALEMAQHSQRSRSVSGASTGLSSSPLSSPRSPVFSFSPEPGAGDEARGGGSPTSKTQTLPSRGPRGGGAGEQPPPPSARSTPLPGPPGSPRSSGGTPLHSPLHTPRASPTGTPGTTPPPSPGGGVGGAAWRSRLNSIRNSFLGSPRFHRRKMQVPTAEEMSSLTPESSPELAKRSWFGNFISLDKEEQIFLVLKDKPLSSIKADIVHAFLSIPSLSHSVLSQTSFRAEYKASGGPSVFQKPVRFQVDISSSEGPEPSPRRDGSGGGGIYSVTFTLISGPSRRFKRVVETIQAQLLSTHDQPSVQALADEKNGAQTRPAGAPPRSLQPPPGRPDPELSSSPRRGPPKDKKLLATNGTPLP

[11] = biological target: Serine/threonine-protein kinase 35 (Homo sapiens) (UniProt Q8TDR2); assay: Inhibition of STK35 (unknown origin) assessed as residual activity at 1000 nM by KINOMEscan analysis relative to control
[12] = biological target: AP2-associated protein kinase 1 (Homo sapiens) (UniProt Q2M2I8); assay: Inhibition of AAK1 (unknown origin) assessed as residual activity at 1000 nM by KINOMEscan analysis relative to control
[13] = biological target: Non-receptor tyrosine-protein kinase TYK2 (Homo sapiens) (UniProt P29597); assay: Inhibition of TYK2 JH2 pseudokinase domain (unknown origin) assessed as residual activity at 1000 nM by KINOMEscan analysis relative to control
[14] = biological target: Serine/threonine-protein kinase 32B (Homo sapiens) (UniProt Q9NY57); assay: Inhibition of YANK2 (unknown origin) assessed as residual activity at 1000 nM by KINOMEscan analysis relative to control
[15] = biological target: Dual specificity protein kinase CLK3 (Homo sapiens) (UniProt P49761); assay: Inhibition of CLK3 (unknown origin) assessed as residual activity at 1000 nM by KINOMEscan analysis relative to control
[16] = biological target: Ribosomal protein S6 kinase alpha-2 (Homo sapiens) (UniProt Q15349); assay: Inhibition of C-terminal RSK3 […] domain 2 (unknown origin) assessed as residual activity at 1000 nM by KINOMEscan analysis relative to control
[17] = biological target: Fibroblast growth factor receptor 4 (Homo sapiens) (UniProt P22455); assay: Inhibition of FGFR4 (unknown origin) assessed as residual activity at 1000 nM by KINOMEscan analysis relative to control
[18] = biological target: Mitogen-activated protein kinase kinase kinase 20 (Homo sapiens) (UniProt Q9NYL2); assay: Inhibition of ZAK (unknown origin) assessed as residual activity at 1000 nM by KINOMEscan analysis relative to control
[19] = biological target: Mitogen-activated protein kinase kinase kinase kinase 5 (Homo sapiens) (UniProt Q9Y4K4); assay: Inhibition of MAP4K5 (unknown origin) assessed as residual activity at 1000 nM by KINOMEscan analysis relative to control
[20] = biological target: Serine/threonine-protein kinase SIK2 (Homo sapiens) (UniProt Q9H0K1); assay: Inhibition of SIK2 (unknown origin) assessed as residual activity at 1000 nM by KINOMEscan analysis relative to control
[21] = biological target: Tyrosine-protein kinase Tec (Homo sapiens) (UniProt P42680); assay: Inhibition of TEC (unknown origin) assessed as residual activity at 1000 nM by KINOMEscan analysis relative to control
[22] = biological target: Dual specificity protein kinase CLK2 (Homo sapiens) (UniProt P49760); assay: Inhibition of CLK2 (unknown origin) assessed as residual activity at 1000 nM by KINOMEscan analysis relative to control
Sequence of Dual specificity protein kinase CLK2 (Homo sapiens) (P49760 whole entry, looked up): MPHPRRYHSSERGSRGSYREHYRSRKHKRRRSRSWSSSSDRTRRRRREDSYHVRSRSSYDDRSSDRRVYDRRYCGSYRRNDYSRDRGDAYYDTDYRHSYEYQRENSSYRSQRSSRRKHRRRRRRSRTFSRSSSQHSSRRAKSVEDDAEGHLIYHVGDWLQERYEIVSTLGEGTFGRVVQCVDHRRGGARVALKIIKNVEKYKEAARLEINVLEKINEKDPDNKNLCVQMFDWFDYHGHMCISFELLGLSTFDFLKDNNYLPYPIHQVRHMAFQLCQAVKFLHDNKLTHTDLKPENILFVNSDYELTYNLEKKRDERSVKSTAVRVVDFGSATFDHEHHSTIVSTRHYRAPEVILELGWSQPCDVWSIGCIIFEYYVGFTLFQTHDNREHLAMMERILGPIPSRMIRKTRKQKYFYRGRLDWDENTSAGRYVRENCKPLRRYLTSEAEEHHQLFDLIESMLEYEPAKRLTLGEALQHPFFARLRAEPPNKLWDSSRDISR

Sequence of Myosin-IIIa (Homo sapiens) (Q8NEV4 whole entry): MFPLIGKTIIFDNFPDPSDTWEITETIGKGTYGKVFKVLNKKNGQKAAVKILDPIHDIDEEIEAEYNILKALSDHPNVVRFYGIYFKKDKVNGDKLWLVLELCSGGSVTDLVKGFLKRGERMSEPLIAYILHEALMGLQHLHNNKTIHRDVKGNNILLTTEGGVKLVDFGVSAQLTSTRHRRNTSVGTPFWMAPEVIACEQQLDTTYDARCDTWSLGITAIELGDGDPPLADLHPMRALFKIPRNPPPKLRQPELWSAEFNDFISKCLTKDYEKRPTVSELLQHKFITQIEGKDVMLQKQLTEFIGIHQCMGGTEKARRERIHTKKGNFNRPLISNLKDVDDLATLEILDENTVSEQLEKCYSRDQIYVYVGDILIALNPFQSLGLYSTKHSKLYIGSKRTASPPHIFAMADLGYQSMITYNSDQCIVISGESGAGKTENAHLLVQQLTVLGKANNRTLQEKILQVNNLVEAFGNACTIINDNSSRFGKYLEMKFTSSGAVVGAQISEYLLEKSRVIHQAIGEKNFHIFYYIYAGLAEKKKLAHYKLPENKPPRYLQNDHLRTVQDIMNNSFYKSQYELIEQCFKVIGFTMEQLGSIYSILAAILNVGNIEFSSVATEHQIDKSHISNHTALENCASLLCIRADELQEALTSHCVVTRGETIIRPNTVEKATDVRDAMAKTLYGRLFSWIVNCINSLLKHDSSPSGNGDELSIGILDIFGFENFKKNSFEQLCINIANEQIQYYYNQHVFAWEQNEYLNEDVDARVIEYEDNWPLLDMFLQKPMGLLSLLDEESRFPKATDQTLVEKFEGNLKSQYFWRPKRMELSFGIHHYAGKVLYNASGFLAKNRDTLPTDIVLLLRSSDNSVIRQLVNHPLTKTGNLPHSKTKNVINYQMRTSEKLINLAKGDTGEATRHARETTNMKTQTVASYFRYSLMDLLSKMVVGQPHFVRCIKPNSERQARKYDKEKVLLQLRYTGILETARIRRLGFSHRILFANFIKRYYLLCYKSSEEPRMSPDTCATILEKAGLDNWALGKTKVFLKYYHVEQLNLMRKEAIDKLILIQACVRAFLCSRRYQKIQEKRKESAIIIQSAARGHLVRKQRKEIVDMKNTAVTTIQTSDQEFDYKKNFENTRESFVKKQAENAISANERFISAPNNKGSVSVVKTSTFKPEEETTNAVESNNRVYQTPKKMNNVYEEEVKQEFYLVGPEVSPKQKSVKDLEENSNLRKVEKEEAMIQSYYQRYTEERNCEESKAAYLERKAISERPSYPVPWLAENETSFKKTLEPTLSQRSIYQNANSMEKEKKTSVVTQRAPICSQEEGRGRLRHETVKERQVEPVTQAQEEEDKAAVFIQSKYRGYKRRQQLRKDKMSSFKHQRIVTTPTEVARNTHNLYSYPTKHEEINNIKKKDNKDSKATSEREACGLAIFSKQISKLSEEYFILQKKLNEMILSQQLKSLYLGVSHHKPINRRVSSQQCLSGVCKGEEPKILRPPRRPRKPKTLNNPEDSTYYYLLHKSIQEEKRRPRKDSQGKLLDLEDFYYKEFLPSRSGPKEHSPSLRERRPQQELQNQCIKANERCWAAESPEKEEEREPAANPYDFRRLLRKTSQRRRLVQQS
Sequence of Phosphatidylinositol 4,5-bisphosphate 3-kinase catalytic subunit alpha isoform (Homo sapiens), P42336 [C420R] (P42336 whole entry C420R, canonical isoform): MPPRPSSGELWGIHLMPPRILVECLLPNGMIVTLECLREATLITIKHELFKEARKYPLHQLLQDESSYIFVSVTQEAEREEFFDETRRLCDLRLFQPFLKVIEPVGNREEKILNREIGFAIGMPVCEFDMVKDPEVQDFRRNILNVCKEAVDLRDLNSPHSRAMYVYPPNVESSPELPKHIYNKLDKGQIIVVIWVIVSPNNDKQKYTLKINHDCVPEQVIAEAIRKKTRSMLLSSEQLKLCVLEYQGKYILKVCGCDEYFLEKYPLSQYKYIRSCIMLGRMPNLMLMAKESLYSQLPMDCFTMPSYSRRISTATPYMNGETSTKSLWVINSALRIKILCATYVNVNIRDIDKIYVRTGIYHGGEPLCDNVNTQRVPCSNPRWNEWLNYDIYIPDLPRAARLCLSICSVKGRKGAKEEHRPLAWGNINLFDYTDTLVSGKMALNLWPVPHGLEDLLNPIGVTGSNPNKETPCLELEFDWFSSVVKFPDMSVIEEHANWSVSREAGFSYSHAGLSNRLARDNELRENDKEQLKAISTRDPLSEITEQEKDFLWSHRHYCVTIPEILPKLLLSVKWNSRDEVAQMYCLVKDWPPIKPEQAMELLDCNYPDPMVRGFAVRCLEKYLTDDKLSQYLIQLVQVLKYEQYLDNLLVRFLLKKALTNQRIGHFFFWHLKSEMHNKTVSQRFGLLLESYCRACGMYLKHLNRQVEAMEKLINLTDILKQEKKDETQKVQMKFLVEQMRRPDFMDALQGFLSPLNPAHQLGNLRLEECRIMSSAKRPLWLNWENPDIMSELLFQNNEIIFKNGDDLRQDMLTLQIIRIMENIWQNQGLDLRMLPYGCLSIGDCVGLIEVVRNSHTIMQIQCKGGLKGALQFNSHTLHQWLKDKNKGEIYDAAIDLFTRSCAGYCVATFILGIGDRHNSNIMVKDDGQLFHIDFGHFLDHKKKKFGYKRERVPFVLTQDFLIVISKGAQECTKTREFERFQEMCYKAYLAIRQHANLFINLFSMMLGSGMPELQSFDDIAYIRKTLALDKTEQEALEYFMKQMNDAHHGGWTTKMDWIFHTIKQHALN
Sequence of Ribosomal protein S6 kinase alpha-4 (Homo sapiens) (O75676 whole entry, looked up): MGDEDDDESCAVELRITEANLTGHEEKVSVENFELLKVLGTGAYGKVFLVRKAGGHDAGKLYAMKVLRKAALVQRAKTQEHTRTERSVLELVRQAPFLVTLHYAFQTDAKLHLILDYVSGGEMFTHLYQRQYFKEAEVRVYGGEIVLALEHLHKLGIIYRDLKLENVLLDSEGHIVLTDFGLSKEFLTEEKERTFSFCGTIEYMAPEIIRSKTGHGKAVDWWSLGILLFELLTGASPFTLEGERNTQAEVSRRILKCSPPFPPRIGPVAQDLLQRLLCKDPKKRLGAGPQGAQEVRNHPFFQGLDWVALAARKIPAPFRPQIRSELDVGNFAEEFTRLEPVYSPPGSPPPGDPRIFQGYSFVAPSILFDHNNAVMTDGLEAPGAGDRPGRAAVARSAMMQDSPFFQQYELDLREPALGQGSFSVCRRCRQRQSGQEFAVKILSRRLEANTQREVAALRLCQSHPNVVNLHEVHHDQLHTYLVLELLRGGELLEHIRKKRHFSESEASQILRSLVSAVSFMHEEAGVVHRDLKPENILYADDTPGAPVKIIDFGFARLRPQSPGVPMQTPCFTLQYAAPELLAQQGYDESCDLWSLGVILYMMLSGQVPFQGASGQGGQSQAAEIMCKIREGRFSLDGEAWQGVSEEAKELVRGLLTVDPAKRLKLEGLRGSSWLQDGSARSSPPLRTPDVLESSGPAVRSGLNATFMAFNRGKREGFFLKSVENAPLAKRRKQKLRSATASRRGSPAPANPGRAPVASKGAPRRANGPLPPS
Sequence of Phosphatidylinositol 4,5-bisphosphate 3-kinase catalytic subunit alpha isoform (Homo sapiens), P42336 [E545A] (P42336 whole entry E545A, canonical isoform): as the sequence (P42336 whole entry C420R, canonical isoform) above, with R420C, E545A counted along it
Sequence of AP2-associated protein kinase 1 (Homo sapiens) (Q2M2I8 whole entry, looked up, the tested form may be a part): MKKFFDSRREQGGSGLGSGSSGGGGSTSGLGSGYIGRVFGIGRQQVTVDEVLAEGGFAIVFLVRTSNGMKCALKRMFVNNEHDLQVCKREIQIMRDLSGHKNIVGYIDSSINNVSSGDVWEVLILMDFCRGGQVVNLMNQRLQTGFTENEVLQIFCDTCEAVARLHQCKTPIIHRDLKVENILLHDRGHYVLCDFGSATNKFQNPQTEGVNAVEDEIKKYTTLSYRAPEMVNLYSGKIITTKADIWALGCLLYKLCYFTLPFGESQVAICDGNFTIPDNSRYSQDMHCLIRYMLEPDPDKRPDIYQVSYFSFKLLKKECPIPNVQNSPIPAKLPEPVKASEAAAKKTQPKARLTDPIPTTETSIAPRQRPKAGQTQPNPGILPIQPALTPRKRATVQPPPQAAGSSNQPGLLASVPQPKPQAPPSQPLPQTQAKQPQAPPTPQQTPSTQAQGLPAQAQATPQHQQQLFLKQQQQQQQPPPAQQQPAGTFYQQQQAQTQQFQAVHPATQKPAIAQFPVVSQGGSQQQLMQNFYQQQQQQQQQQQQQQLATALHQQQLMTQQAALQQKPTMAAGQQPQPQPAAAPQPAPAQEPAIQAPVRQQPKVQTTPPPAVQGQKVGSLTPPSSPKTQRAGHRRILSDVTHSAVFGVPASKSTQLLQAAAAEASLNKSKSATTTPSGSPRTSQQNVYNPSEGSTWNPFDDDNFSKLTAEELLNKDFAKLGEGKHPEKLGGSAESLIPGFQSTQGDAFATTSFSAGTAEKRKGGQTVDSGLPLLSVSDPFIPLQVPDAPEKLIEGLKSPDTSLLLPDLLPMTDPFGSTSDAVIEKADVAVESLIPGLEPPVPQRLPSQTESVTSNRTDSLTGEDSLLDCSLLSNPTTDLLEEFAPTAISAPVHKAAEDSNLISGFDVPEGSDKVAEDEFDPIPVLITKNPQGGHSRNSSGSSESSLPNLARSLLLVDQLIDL

Compound	Activity [1] [%]	Activity [2] [%]	Activity [3] [%]	Activity [4] [%]	Activity [5] [%]	Activity [6] [%]	Activity [7] [%]	Activity [8] [%]	Activity [9] [%]	Activity [10] [%]	Activity [11] [%]	Activity [12] [%]	Activity [13] [%]	Activity [14] [%]	Activity [15] [%]	Activity [16] [%]	Activity [17] [%]	Activity [18] [%]	Activity [19] [%]	Activity [20] [%]	other results
COc1cc2nc(C)nc(N[C@H](C)c3cccc(-c4cn[nH]c4)c3)c2cc1OC	100	66	0	73	82	92	88	100	71	100	92	100	80	86	81	67	97	89	96	89	Activity [21]: 85%; Activity [22]: 78%
COc1cc2ncnc(N[C@H](C)c3cccc4ccccc34)c2cc1OC	92	91	100	100	82	97	78	50	100	100	100	100	100	92	100	96	98	89	100	100	Activity [21]: 98%; Activity [22]: 100%
